Reference: patent US7163952B2, “Azole compound and medicinal use thereof” (Japan Tobacco Inc., priority 2001, dated 2007)

Point of comparison: `CN(Cc1ccc(C(=O)O)cc1)c1nc(-c2ccc3[nH]c(-c4ccc(C5CCCCC5)cc4)nc3c2)cs1` [Example 231, 4-((N-(4-(2-(4-cyclohexylphenyl)-1H-benzoimidazol-5-yl)-2-thiazolyl)-N-methylamino)methyl)benzoic acid], melting point 250 °C. Against it:
- O=C(O)c1ccc(N(CCC2CCCCC2)c2nc(-c3cc(Cl)ccc3OCc3ccc(C(F)(F)F)cc3)cs2)cc1 [Example 177, 4-(N-(4-(5-chloro-2-(4-trifluoromethylbenzyloxy)phenyl)-2-thiazolyl)-N-(2-cyclohexylethyl)amino)benzoic acid] — lower, 170 to 175 °C
- O=C(O)c1ccc(N(CCC2CCCCC2)c2nc(-c3cc(Cl)ccc3OCc3ccc(Cl)c(Cl)c3)cs2)cc1 [Example 178, 4-(N-(4-(5-chloro-2-(3,4-dichlorobenzyloxy)phenyl)-2-thiazolyl)-N-(2-cyclohexylethyl)amino)benzoic acid] — lower, 195 to 198 °C
- O=C(O)c1ccc(Nc2nc(-c3cc(Cl)ccc3OCc3ccc(C(F)(F)F)cc3)cs2)c(OCCC2CCCCC2)c1 [Example 179, 4-(4-(5-chloro-2-(4-trifluoromethylbenzyloxy)phenyl)-2-thiazolylamino)-3-(2-cyclohexylethoxy)benzoic acid] — lower, 134 to 140 °C
- COc1ccc(OCc2ccc(C(F)(F)F)cc2)c(-c2csc(Nc3ccc(C(=O)O)cc3OCc3ccccc3)n2)c1 [Example 180, 3-benzyloxy-4-(4-(5-methoxy-2-(4-trifluoromethylbenzyloxy)phenyl)-2-thiazolylamino)benzoic acid] — lower, 227 to 230 °C
- O=C(O)c1cccc(N(CC2CCCCC2)c2nc(-c3cc(Cl)ccc3OCc3ccccc3)cs2)c1 [Example 181, 3-(N-(4-(2-benzyloxy-5-chlorophenyl)-2-thiazolyl)-N-cyclohexylmethylamino)benzoic acid] — lower, 98 to 100 °C
- CCCCN(c1ccc(C(=O)O)cc1)c1nc(-c2cc(Cl)ccc2OCc2ccc(C(F)(F)F)cc2)cs1 [Example 182, 4-(N-butyl-N-(4-(5-chloro-2-(4-trifluoromethylbenzyloxy)phenyl)-2-thiazolyl)amino)benzoic acid] — lower, 216 to 218 °C
- CC(C)N(c1ccc(C(=O)O)cc1)c1nc(-c2nc3ccc(OCc4ccc(Cl)c(Cl)c4)cc3o2)cs1 [Example 183, 4-(N-(4-(6-(3,4-dichlorobenzyloxy)-2-benzooxazolyl)-2-thiazolyl)-N-isopropylamino)benzoic acid] — lower, 230 °C
- O=C(O)c1ccc(N(CCC2CCCCC2)c2nc(-c3nc4ccc(OCc5ccc(Cl)c(Cl)c5)cc4o3)cs2)cc1 [Example 184, 4-(N-(2-cyclohexylethyl)-N-(4-(6-(3,4-dichlorobenzyloxy)-2-benzooxazolyl)-2-thiazolyl)amino)benzoic acid] — lower, 195 to 197 °C
- O=C(O)c1ccc(N(CC2CCCCC2)c2nc(-c3nc4ccc(OCc5ccc(Cl)c(Cl)c5)cc4o3)cs2)cc1 [Example 187, 4-(N-cyclohexylmethyl-N-(4-(6-(3,4-dichlorobenzyloxy)-2-benzooxazolyl)-2-thiazolyl)amino)benzoic acid] — lower, 182 to 189 °C
- O=C(O)c1ccc(N(CC2CCCCC2)c2nc(-c3nc4ccc(OCc5ccc(C(F)(F)F)cc5C(F)(F)F)cc4o3)cs2)cc1 [Example 189, 4-(N-(4-(6-(2,4-bis(trifluoromethyl)benzyloxy)-2-benzooxazolyl)-2-thiazolyl)-N-cyclohexylmethylamino)benzoic acid] — lower, 213 to 214 °C
- O=C(O)c1ccc(N(CC2CCCCC2)c2nc(-c3nc4ccc(OCc5ccc(F)c(F)c5)cc4o3)cs2)cc1 [Example 190, 4-(N-cyclohexylmethyl-N-(4-(6-(3,4-difluorobenzyloxy)-2-benzooxazolyl)-2-thiazolyl)amino)benzoic acid] — lower, 228 to 230 °C
- COc1cc(COc2ccc3nc(-c4csc(N(CC5CCCCC5)c5ccc(C(=O)O)cc5)n4)oc3c2)cc(OC)c1 [Example 191, 4-(N-cyclohexylmethyl-N-(4-(6-(3,5-dimethoxybenzyloxy)-2-benzooxazolyl)-2-thiazolyl)amino)benzoic acid] — lower, 160 to 162 °C
- CN(Cc1ccc([C@H]2CC[C@@H](O)CC2)cc1)c1ccc(-c2csc(N(C)Cc3ccc(C(=O)O)cc3)n2)cc1 [Example 194, cis-4-((N-(4-(4-(N-(4-(4-hydroxycyclohexyl)benzyl)-N-methylamino)phenyl)-2-thiazolyl)-N-methylamino)methyl)benzoic acid] — lower, 180 to 181 °C
- CN(Cc1ccc(C2CCCC(=O)C2)cc1)c1ccc(-c2csc(N(C)Cc3ccc(C(=O)O)cc3)n2)cc1 (centres unmarked) [Example 207, 4-((N-methyl-N-(4-(4-(N-methyl-N-(4-(3-oxocyclohexyl)benzyl)amino)phenyl)-2-thiazolyl)amino)methyl)benzoic acid] — lower, 189 to 191 °C
- CN(Cc1ccc(C2CCOCC2)cc1)c1ccc(-c2csc(N(C)Cc3ccc(C(=O)O)cc3)n2)cc1 [Example 210, 4-((N-methyl-N-(4-(4-(N-methyl-N-(4-(tetrahydropyran-4-yl)benzyl)amino)phenyl)-2-thiazolyl)amino)methyl)benzoic acid] — lower, 225 to 227 °C
- CC(=O)N1CCC(c2ccc(CN(C)c3ccc(-c4csc(N(C)Cc5ccc(C(=O)O)cc5)n4)cc3)cc2)CC1 [Example 211, 4-((N-(4-(4-(N-(4-(1-acetylpiperidin-4-yl)benzyl)-N-methylamino)phenyl)-2-thiazolyl)-N-methylamino)methyl)benzoic acid] — lower, 208 to 210 °C
- CN(Cc1ccc(C2CCCC2)cc1)c1ccc(-c2csc(N(C)Cc3ccc(C(=O)O)cc3)n2)cc1 [Example 212, 4-((N-(4-(4-(N-(4-cyclopentylbenzyl)-N-methylamino)phenyl)-2-thiazolyl)-N-methylamino)methyl)benzoic acid] — lower, 181 to 183 °C
- CN(Cc1ccc(C(=O)O)cc1)c1nc(-c2ccc(N(C)C[C@H]3CC[C@H](c4ccccc4)CC3)cc2)cs1 [Example 213, trans-4-((N-methyl-N-(4-(4-(N-methyl-N-(4-phenylcyclohexylmethyl)amino)phenyl)-2-thiazolyl)amino)methyl)benzoic acid] — lower, 191 to 193 °C
- CN(Cc1ccc(C2CCC(C)(C)CC2)cc1)c1ccc(-c2csc(N(C)Cc3ccc(C(=O)[O-])cc3)n2)cc1.[Na+] [Example 216, sodium 4-((N-(4-(4-(N-(4-(4,4-dimethylcyclohexyl)benzyl)-N-methylamino)phenyl)-2-thiazolyl)-N-methylamino)methyl)benzoate] — lower, 230 °C
- O=C(O)c1ccc(CN(CC2CCCCC2)c2nc(-c3nc4ccc(OCc5ccccc5)cc4o3)cs2)cc1 [Example 220, 4-((N-(4-(6-benzyloxy-2-benzooxazolyl)-2-thiazolyl)-N-cyclohexylmethylamino)methyl)benzoic acid] — lower, 117 to 119 °C
- O=C(O)c1ccc(CN(CC2CCCCC2)c2nc(-c3nc4ccc(OCCc5ccccc5)cc4o3)cs2)cc1 [Example 221, 4-((N-cyclohexylmethyl-N-(4-(6-phenethyloxy-2-benzooxazolyl)-2-thiazolyl)amino)methyl)benzoic acid] — lower, 105 to 108 °C
- CN(CCCCc1ccccc1)c1ccc(-c2csc(N(C)Cc3ccc(C(=O)O)cc3)n2)cc1 [Example 222, 4-((N-methyl-N-(4-(4-(N-methyl-N-(4-phenylbutyl)amino)phenyl)-2-thiazolyl)amino)methyl)benzoic acid] — lower, 146 to 147 °C
- CN(CCC1Cc2ccccc2C1)c1ccc(-c2csc(N(C)Cc3ccc(C(=O)O)cc3)n2)cc1 [Example 223, 4-((N-(4-(4-(N-(2-(2-indanyl)ethyl)-N-methylamino)phenyl)-2-thiazolyl)-N-methylamino)methyl)benzoic acid] — lower, 174 to 176 °C
- CN(CCc1ccc(Cl)c(Cl)c1)c1ccc(-c2csc(N(C)Cc3ccc(C(=O)O)cc3)n2)cc1 [Example 224, 4-((N-(4-(4-(N-(2-(3,4-dichlorophenyl)ethyl)-N-methylamino)phenyl)-2-thiazolyl)-N-methylamino)methyl)benzoic acid] — lower, 151 to 152 °C
- CN(CCCc1ccccc1)c1ccc(-c2csc(N(C)Cc3ccc(C(=O)O)cc3)n2)cc1 [Example 225, 4-((N-methyl-N-(4-(4-(N-methyl-N-(3-phenylpropyl)amino)phenyl)-2-thiazolyl)amino)methyl)benzoic acid] — lower, 127 to 128 °C
- CN(Cc1ccc(C2CCCCC2)cc1)c1ccc(-c2csc(N(C)Cc3ccc(C(=O)O)cc3)n2)cn1 [Example 226, 4-((N-(4-(6-(N-(4-cyclohexylbenzyl)-N-methylamino)-3-pyridyl)-2-thiazolyl)-N-methylamino)methyl)benzoic acid] — lower, 157 to 159 °C
- Cc1nc(N(C)Cc2ccc(C3CCCCC3)cc2)sc1-c1csc(N(C)Cc2ccc(C(=O)O)cc2)n1 [Example 227, 4-((N-(2′-(N-(4-cyclohexylbenzyl)-N-methylamino)-4′-methyl-4,5′-bithiazolyl-2-yl)-N-methylamino)methyl)benzoic acid] — lower, 172 to 173 °C
- CN(Cc1ccc(C2CCCCC2)cc1)c1cc(-c2csc(N(C)Cc3ccc(C(=O)O)cc3)n2)cc(Cl)n1 [Example 228, 4-((N-(4-(2-chloro-6-(N-(4-cyclohexylbenzyl)-N-methylamino)-4-pyridyl)-2-thiazolyl)-N-methylamino)methyl)benzoic acid] — lower, 155 to 157 °C
- CN(Cc1ccc(CC(C)(C)C)cc1)c1ccc(-c2csc(N(C)Cc3ccc(C(=O)O)cc3)n2)cc1 [Example 229, 4-((N-(4-(4-(N-(4-(2,2-dimethylpropyl)benzyl)-N-methylamino)phenyl)-2-thiazolyl)-N-methylamino)methyl)benzoic acid] — lower, 176 to 177 °C

In the case of `CC(C)(C)c1ccc(COc2ccc3nc(-c4csc(N(CC5CCCCC5)c5ccc(C(=O)O)cc5)n4)oc3c2)cc1` [Example 188, 4-(N-(4-(6-(4-tert-butylbenzyloxy)-2-benzooxazolyl)-2-thiazolyl)-N-cyclohexylmethylamino)benzoic acid], the melting point is reported as 230 °C (dec.).
In the case of `CN(Cc1ccc(C2CCCCC2)cc1)c1ccc(-c2csc(N(C)Cc3cccc(C(=O)O)c3)n2)cc1` [Example 204, 3-((N-(4-(4-(N-(4-cyclohexylbenzyl)-N-methylamino)phenyl)-2-thiazolyl)-N-methylamino)methyl)benzoic acid], the melting point is reported as 183 °C (dec.).
